Molecular target: T1, Ba/F3 cell EGFR Exon20 ins NPH (Homo sapiens, UniProt P00533, INS773NPH)
T1 construct: expressed in transfected cells; host or cells: Ba/F3
Test: Ba/F3 cell proliferation suppression, EGFR Exon20 ins NPH
Type: cell-based
Conditions: GI50 class; Ba/F3 cell line with NPH inserted at Exon20 of EGFR; 72 hours
In short: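 Seed 3000–5000 cells/well; after 24 h add compound (12 conc., 0.3 nM–50 um final); incubate 72 h; add CellTiter-Glo, 10 min room temperature; read luminescence; GI50 from % growth vs control, triplicate.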

Structure (SMILES)	Ba/F3 (NPH) Activity
C=CC(=O)Nc1cc(Nc2cc(N3OCC[C@H]3Cc3ccccc3)ncn2)c(OC)cc1N1CCN(CC2CC2)CC1 [compound 967, N-(5-((6-((R)-3-benzylisoxazolidine-2-yl)pyrimidine-4-yl)amino)-2-(4-(cyclopropylmethyl)piperazine-1-yl)-4-methoxyphenyl) acrylamide]	C (500 nM ≤ GI50 < 5000 nM)
C=CC(=O)Nc1cc(Nc2cc(N3OCC[C@@H]3c3cccc(Cl)c3F)ncn2)c(OC)cc1N1CCC(N2CCN(CC3CC3)CC2)CC1 [Example 96, N-(5-((6-((R)-3-(3-chloro-2-fluorophenyl)isoxazolidine-2-yl)pyrimidine-4-yl)amino)-2-(4-(4-(cyclopropylmethyl)piperazine-1-yl)piperidine-1-yl)-4-methoxyphenyl) acrylamide]	A (GI50 < 50 nM)
C=CC(=O)Nc1cc(Nc2cc(N3OCC[C@@H]3c3cccc(Cl)c3Cl)ncn2)c(OC)cc1N1CC[C@@H](N(C)C)C1 [compound 526, N-(5-((6-((R)-3-(2,3-dichlorophenyl)isoxazolidine-2-yl)pyrimidine-4-yl)amino)-2-((R)-3-(dimethylamino)pyrolidine-1-yl)-4-methoxyphenyl) acrylamide]	A (GI50 < 50 nM)
C=CC(=O)Nc1cc(Nc2cc(N3OCC[C@@H]3c3cc(F)cc(F)c3)ncn2)c(OC)cc1N1CCO[C@H](C)C1 [compound 338, N-(5-((6-((R)-3-(3,5-difluorophenyl)isoxazolidine-2-yl)pyrimidine-4-yl)amino)-4-methoxy-2-((R)-2-methylmorpholino)phenyl)acrylamide]	B (50 nM ≤ GI50 < 500 nM)
C=CC(=O)Nc1cc(Nc2cc(N3OCC[C@@H]3c3ccc(F)cc3F)ncn2)c(OC)cc1N1CCC(N2C[C@H]3C[C@@H]2CN3C)CC1 [compound 473, N-(5-((6-((R)-3-(2,4-difluorophenyl)isoxazolidine-2-yl)pyrimidine-4-yl)amino)-4-methoxy-2-(4-((1R,4R)-5-methyl-2,5-diazabicyclo[2.2.1]heptane-2-yl)piperidine-1-yl)phenyl)acrylamide]	A (GI50 < 50 nM)
C=CC(=O)Nc1cc(Nc2cc(N3OCC[C@@H]3c3cccc(C(F)(F)F)c3)ncn2)c(OC)cc1N(C)CCN(C)C [compound 449, N-(2-((2-(dimethylamino)ethyl)(methyl)amino)-4-methoxy-5-((6-((R)-3-(3-(trifluoromethyl)phenyl)isoxazolidine-2-yl)pyrimidine-4-yl)amino)phenyl)acrylamide]	A (GI50 < 50 nM)
C=CC(=O)Nc1cc(Nc2cc(N3OCC[C@@H]3c3cc(F)cc(F)c3)ncn2)c(OC)cc1N1CCC(N2CCN(C3CC3)[C@@H](C)C2)CC1 [Example 110, N-(2-(4-((S)-4-cyclopropyl-3-methylpiperazine-1-yl)piperidine-1-yl)-5-((6-((R)-3-(3,5-difluorophenyl)isoxazolidine-2-yl)pyrimidine-4-yl)amino)-4-methoxyphenyl) acrylamide]	A (GI50 < 50 nM)
C=CC(=O)Nc1cc(Nc2cc(N3OCC[C@@H]3c3ccc(Cl)c(Cl)c3)ncn2)c(OC)cc1N1C[C@H]2C[C@@H]1CN2CC [compound 676, N-(5-((6-((R)-3-(3,4-dichlorophenyl)isoxazolidine-2-yl)pyrimidine-4-yl)amino)-2-((1R,4R)-5-ethyl-2,5-diazabicyclo[2.2.1]heptane-2-yl)-4-methoxyphenyl) acrylamide]	A (GI50 < 50 nM)
C=CC(=O)Nc1cc(Nc2cc(N3OCC[C@@H]3c3ccc(F)c(Cl)c3)ncn2)c(OC)cc1N1CCC(N2CCN(C)[C@@H](C)C2)CC1 [compound 900, N-(5-((6-((R)-3-(3-chloro-4-fluorophenyl)isoxazolidine-2-yl)pyrimidine-4-yl)amino)-2-(4-((S)-3,4-dimethylpiperazine-1-yl)piperidine-1-yl)-4-methoxyphenyl) acrylamide]	A (GI50 < 50 nM)

From patent publication US12157730B2, “Heteroaryl derivative, method for producing same, and pharmaceutical composition comprising same as effective component” (VORONOI INC., priority 2019, dated 2024)
